Source: patent US20210379046A1, “Methods of Treating Diseases Using Kinase Modulators” (Memorial Sloan Kettering Cancer Center, priority 2018, published 2021)
“Also recorded” adds a separate entry of the source.

How the values were obtained:
TPC1 cells [1] = assay: ADCC chromium-51 release assay with ESK1 and human PBMCs on inhibitor-pretreated TPC1 cells; type: cell-based
Protocol: Peripheral blood mononuclear cells were derived from healthy donors by Ficoll density centrifugation after receiving informed consent on Memorial Sloan Kettering Institutional Review board-approved protocols. TPC1 cells treated with RET inhibitor drugs and DMSO control were labeled with chromium-51 and co-cultured with PBMCs and ESK (or its isotype control, hIgG1). Different E:T ratios were used and after 5 hrs of incubation at 37° C., the supernatant was harvested and chromium levels were measured by Chromium-51 release assay (Perkin Elmer). Higher chromium levels indicated higher levels of cytotoxicity.
After the addition of ESK and peripheral blood mononuclear cells for 5 hrs, chromium release was measured.
For each experiment reported, fresh peripheral blood mononuclear cells were derived from a healthy donor by Ficoll density centrifugation after receiving informed consent on Memorial Sloan Kettering Institutional Review Board-approved protocols. […] Cells were then labeled with 1 uCi/well chromium-51 for 1 hr at 37° C. […] Different effector:target ratios were used and after 5 hrs of incubation at 37° C., the supernatant was harvested and chromium levels were measured through standard chromium-51 release assay on a Top Count machine (Perkin Elmer).

TPC1 cells [2] = assay: Mass spectrometry of eluted HLA class I presented peptides, TPC1 cells; type: cell-based, human
Protocol: After 72 hrs, cells were harvested, washed, lysed. The lysate was run through an activated Sepharose-CNBr column coupled to the W6/32 antibody to bind HLA-A,B,C from the cell. The peptides bound by those HLAs and captured on the column were then eluted and mass spectrometry was run on those peptides.
Immunopurification affinity columns were prepared as described previously (Bassani-Sternberg et al., 2015, Mol Cell Proteomics 14(3):658-673). In brief, 40 mg of Cyanogen bromide-activated-Sepharose® 4B (Sigma-Aldrich, Cat #C9142) was activated with 1 mM hydrochloric acid (Sigma-Aldrich, Cat #320331) for 30 min. Subsequently, 0.5 mg of W6/32 antibody (BioXCell, BE0079; RRID: AB 1107730) was coupled to sepharose in presence of binding buffer (150 mM sodium chloride, 50 mM sodium bicarbonate, pH 8.3; sodium chloride: Sigma-Aldrich, Cat #S9888, sodium bicarbonate: Sigma-Aldrich, Cat #56014) for at least 2 hours at room temperature. Sepharose was blocked for 1 h with glycine (Sigma-Aldrich, Cat #410225). Columns were equilibrated with PBS for 10 min. […]. Afterwards, cells were lysed in 1 ml 1% CHAPS (Sigma-Aldrich, Cat #C3023) in PBS, supplemented with 1 tablet of protease inhibitors (cOmplete, Cat #11836145001) for 1 hour at 4° C. This lysate was spun down for 1 hour at 20,000 g at 4° C. Supernatant was run over the affinity column through peristaltic pumps at 1 ml/min overnight at 4° C. Affinity columns were washed with PBS for 15 min, run dry, and HLA complexes subsequently eluted three times with 200 μl 1% trifluoracetic acid (TFA, Sigma/Aldrich, Cat #02031). For separation of HLA ligands from their HLA complexes tC18 columns (Sep-Pak tC18 1 cc VacCartridge, 100 mg Sorbent per Cartridge, 37-55 μm Particle Size, Waters, Cat #WAT036820) were prewashed with 80% acetonitrile (ACN, Sigma-Aldrich, Cat #34998) in 0.1% TFA and equilibrated with two washes of 0.1% TFA. Samples were loaded, washed again with 0.1% TFA and eluted in 400 μl 30% ACN in 0.1% TFA. Sample volume was reduced by vacuum centrifugation for mass spectrometry analysis.
Samples were analyzed by a high resolution/high accuracy LC-MS/MS (Lumos Fusion, Thermo Fisher). Peptides were desalted using ZipTips (Sigma Millipore, Cat. #ZTC18S008) according to manufactures instructions and concentrated using vacuum centrifugation prior to being separated using direct loading onto a packedin-emitter C18 column (75 um ID/12 cm, 3 μm particles, Nikkyo Technos Co., Ltd. Japan). The gradient was delivered at 300 nl/min increasing linear from 2% Buffer B (0.1% formic acid in 80% acetonitrile)/98% Buffer A (0.1% formic acid) to 30% Buffer B/70% Buffer A, over 70 minutes. MS and MS/MS were operated at resolutions of 60,000 and 30,000, respectively. Only charge states 1, 2 and 3 were allowed. 1.6 Th was chosen as the isolation window and the collision energy was set at 30%. For MS/MS, the maximum injection time was 100 ms with an AGC of 50,000.
Mass spectrometry data was processed using Byonic software (version 2.7.84, Protein Metrics, PaloAlto, Calif.) through a custom-built computer server equipped with 4 Intel Xeon E5-4620 8-core CPUs operating at 2.2 GHz, and 512 GB physical memory (Exxact Corporation, Freemont, Calif.). Mass accuracy for MS1 was set to 10 ppm and to 20 ppm for MS2, respectively. Digestion specificity was defined as unspecific and only precursors with charges 1, 2, and 3 and up to 2 kDa were allowed. Protein FDR was disabled to allow complete assessment of potential peptide identifications. Oxidization of methionine, N-terminal acetylation, phosphorylation of serine, threonine and tyrosine were set as variable modifications for all samples. All samples were searched against the UniProt Human Reviewed Database (20,349 entries, uniprot.org, downloaded June 2017). […]

TPC1 cells [3] = assay: Luminex cytokine secretion, TPC1 cells; type: cell-based, human; settings: TPC1, 10 nm AST487
Protocol: Supernatant media were harvested after treatment and analyzed by the Luminex device (Luminex Corporation, Austin, Tex.) for relevant cytokine secretion. […] On the left side of each panel is data after 24 hours. On the right side of each panel is data after 48 hours. […] IFNγ detected in the Luminex assay (50-70 ng/ml) is from the added IFNγ at 100 ng/ml at time zero. Therefore, the increase in HLA after inhibitor treatment in these cell lines is not due to indirect activation of the JAK/STAT pathway via autocrine cytokine signaling. The data points shown in this figure are in pairs for each condition. The data point pairs for each time point are, from left to right: DMSO, Rux, Alec, IFNg, and IFNg+Rux.

SMILES: CCN1CCN(Cc2ccc(NC(=O)Nc3ccc(Oc4cc(NC)ncn4)cc3)cc2C(F)(F)F)CC1 [AST487]
- ADCC activity of ESK1 against pretreated TPC1 cells (TPC1 cells [1]; TPC1 pre-incubated with RET inhibitor): improved antibody-dependent cellular cytotoxicity (ADCC) activity; also recorded: increased in vitro ADCC cytotoxicity
- specific lysis (TPC1 cells [1]; TPC1 pretreated 72 hrs with 10 nM AST487, ESK and PBMCs 5 hrs, 50:1 E:T): 20%
- runs TEIPP peptide was found in (n = 3) (TPC1 cells [2]; ALFSFVTAL (SEQ ID NO: 11)): 0
- runs TEIPP peptide was found in (n = 3) (TPC1 cells [2]; FLGPWPAAS (SEQ ID NO: 12)): 1
- runs TEIPP peptide was found in (n = 3) (TPC1 cells [2]; FLSELQYYL (SEQ ID NO: 13)): 0
- runs TEIPP peptide was found in (n = 3) (TPC1 cells [2]; FLYPFLSHL (SEQ ID NO: 14)): 0
- runs TEIPP peptide was found in (n = 3) (TPC1 cells [2]; ILEYLTAEV (SEQ ID NO: 15)): 0
- runs TEIPP peptide was found in (n = 3) (TPC1 cells [2]; LLALAAGLAV (SEQ ID NO: 16)): 0
- runs TEIPP peptide was found in (n = 3) (TPC1 cells [2]; LLLDVPTAAV (SEQ ID NO: 17)): 0
- runs TEIPP peptide was found in (n = 3) (TPC1 cells [2]; LLLSAEPVPA (SEQ ID NO: 18)): 0
- runs TEIPP peptide was found in (n = 3) (TPC1 cells [2]; LLWGRQLFA (SEQ ID NO: 19)): 0
- runs TEIPP peptide was found in (n = 3) (TPC1 cells [2]; LSEKLERI (SEQ ID NO: 20)): 0
- runs TEIPP peptide was found in (n = 3) (TPC1 cells [2]; LTLLGTLWGA (SEQ ID NO: 21)): 0
- runs TEIPP peptide was found in (n = 3) (TPC1 cells [2]; SVLWLGALGL (SEQ ID NO: 22)): 0
- runs TEIPP peptide was found in (n = 3) (TPC1 cells [2]; TLLGASLPA (SEQ ID NO: 23)): 0
- new peptides (only peptides found in all three runs counted) (TPC1 cells [2]; TPC1, 10 nM AST487 or 100 nM cabozantinib): 458
- unique ligands presented (TPC1 cells [2]; TPC1, 10 nM AST487 or 100 nM cabozantinib, three runs pooled, DMSO 4211): 5274
- increase in unique peptides vs DMSO (TPC1 cells [2]; TPC1, three runs pooled): 25%
- unique HLA ligands detected in all 3 runs (TPC1 cells [2]; TPC1, DMSO 195): 585
- runs TEIPP peptide was found in (n = 3) (TPC1 cells [2]; VIIKPLVWV (SEQ ID NO: 24)): 0
- runs TEIPP peptide was found in (n = 3) (TPC1 cells [2]; VLAVFIKAV (SEQ ID NO: 25)): 0
- runs TEIPP peptide was found in (n = 3) (TPC1 cells [2]; VLLDHLSLA (SEQ ID NO: 26)): 0
- IFNα, IFNγ, IL4, IL6 and TNFα secretion (TPC1 cells [3]): had no effect on IFNα, IFNγ, IL4, IL6 or TNFα secretion; also recorded: had no effect on IFNα, IFNγ, IL4, IL6 and TNFα secretion
